Laboratory results reported in US4935505A, “Novel azolo [1,3] diazepine-5-ol compounds and their uses” (priority 1988, dated 1990).
Read-outs that look alike come from different tables or passages of the source.

Legend:
[1] = target: adenosine deaminase (Homo sapiens, UniProt P00813); assay: Inhibition of adenosine deaminase (ADA), adenosine as substrate, purified enzyme; assay type: biochemical
Excerpt: The mixture of the R and S isomers of the 4,5,6-trihydro-1-(β-D-ribofuranosyl) pyrazolo [5,4-d]

[2] = tested on: human erythrocytic adenosine deaminase; settings: cited from earlier work
[3] = clinical trials; cited from earlier work
[4] = Inhibition of Adenosine Deaminase by Target Compounds, adenosine as substrate, purified enzyme, read-out: Ki

Chain of adenosine deaminase (P00813 whole entry): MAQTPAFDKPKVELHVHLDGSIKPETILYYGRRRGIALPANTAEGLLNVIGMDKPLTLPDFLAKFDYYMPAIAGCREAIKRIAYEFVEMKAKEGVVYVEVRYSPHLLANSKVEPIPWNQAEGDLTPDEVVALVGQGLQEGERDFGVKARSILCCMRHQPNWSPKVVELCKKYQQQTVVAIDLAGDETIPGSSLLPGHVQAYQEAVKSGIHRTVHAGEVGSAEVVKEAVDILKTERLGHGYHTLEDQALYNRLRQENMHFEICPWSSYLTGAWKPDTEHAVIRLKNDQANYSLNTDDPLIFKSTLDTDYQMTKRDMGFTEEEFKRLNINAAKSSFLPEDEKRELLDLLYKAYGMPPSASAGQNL

OC[C@H]1O[C@@H](n2ncc3c2N=CNCC3O)[C@H](O)[C@@H]1O (mixture of isomers) [(3 + 26), 4,5,6-Tihydro-1-(β-D-ribofuranosyl)pyrazolo [5,4-d]-[1,3] diazepin-4(R,S)-ol] gave a Ki [1, 4] of 2 µM.
For OC[C@H]1O[C@@H](n2cnc3c2N=CNC[C@H]3O)[C@H](O)[C@@H]1O [2, coformycin, reference compound], the Ki [1] is given as 0.00012 µM and the tight binding inhibition [2] is given as “exceedingly tight binding inhibitors”.
For OC[C@H]1O[C@@H](n2nnc3c2N=CNC[C@H]3O)[C@H](O)[C@@H]1O [4 (R), 6,7,8-Trihydro-3-β-D-ribofuranosyl-v-triazole [4,5-d] [1,3] diazepin-8(R,S)-ol], the Ki ([1]; Preliminary estimates based on conventional kinetic analysis, adenosine as substrate, purified enzyme, read-out: Ki) was 0.002 µM, the “type of inhibition of ADA” value ([1]; adenosine as substrate, purified enzyme, listed as Compound 4) was “very tight-bindinginhibitor” and the “type of inhibition of ADA” value ([1]; adenosine as substrate, purified enzyme, listed as compound 4) was “potent tight-binding inhibitor”.
For OC[C@H]1O[C@@H](n2nnc3c2N=CNC[C@@H]3O)[C@H](O)[C@@H]1O [37 (S), 6,7,8-Trihydro-3-β-D-ribofuranosyl-v-triazole [4,5-d] [1,3] diazepin-8(R,S)-ol], the Ki [1, 4] was 85 µM.
In the case of OC[C@H]1O[C@@H](n2cnc3c2NC=NC[C@H]3O)C[C@@H]1O [pentostatin, 8(R)-3-(2-deoxy-β-D-erythro-pentofuranosyl)-3,6,7,8-tetrahydroimidazo[4,6-d][1,3]diazepin-8-ol], the acute renal toxicity [3] is given as “acute renal toxicity” and the tight binding inhibition [2] is given as “exceedingly tight binding inhibitors”.
